{"source": "patent US9475808B2", "about": "“Inhibitor compounds of phosphodiesterase type 10A” (AbbVie Deutschland GmbH & Co. KG, priority 2013, dated 2016)", "key": {"[1]": {"target": "PDE10A (UniProt Q9Y233)", "assay": "Measurement of PDE activity (HTRF cAMP assay, recombinant enzyme)", "format": "biochemical", "conditions": "20 nM cyclic nucleotide substrate, 60 minutes at 29 C", "protocol": "The recombinant PDE proteins are used in in vitro enzymatic reaction for measurement of PDE activity. These recombinant proteins, including PDE10A (human, rat and mouse PDE10) and isoforms of PDEs 1, 3, 4, and 5, were purchased from commercial vendor BPS Bioscience. The enzymatic activity of PDEs was determined by cAMP measurement kit from CisBio (IBA) using HTRF technology.\nThe PDE enzymatic reaction was carried out in assay buffer (20 mM Tris-HCl pH7.5, 10 mM MgCl2, 0.1% bovine serum albumin) containing enzyme and substrate. The PDE enzymes concentration ranged from 10 pM-250 pM, depending on each enzyme's specific activity. The substrate cyclic nucleotide (cAMP or cGMP) concentration used in the assay was 20 nM for PDE10, and 100 nM for other PDEs. The inhibitory effect of compound was determined by incubating various concentration of inhibitor in the enzymatic assay. Typically, compound was serial diluted in DMSO then further diluted in assay buffer. Next, the compound at varying concentration was mixed with PDE enzyme. The reaction was initiated by addition of cyclic nucleotide substrate, and incubated for 60 minutes at 29 C. The reaction was stopped by addition of lysis buffer from assay kit. The cAMP-d2 and anti-cAMP cryptate in the lysis buffer detected the level of cAMP left from the PDE hydrolysis reaction. The PDE activity is reversely correlated with the amount of cAMP left in the reaction and can be converted to the percent activity of an uninhibited control (100%). Thus, IC50 value of inhibitor can be obtained by plotting inhibitor concentration against PDE activity at that concentration."}, "[2]": {"assay": "Determination of the microsomal half-life / microsomal clearance, rat liver microsomes", "conditions": "0.5 μM test substance, 0.25 mg microsomal protein/ml, pH 7.4, 37° C., NADPH", "procedure": "(§1) The test substances were incubated in a concentration of 0.5 μM as follows:\n(§2) 0.5 μM test substance are preincubated together with liver microsomes from different species (from rat, human or other species) (0.25 mg of microsomal protein/ml) in 0.05 M potassium phosphate buffer of pH 7.4 in microtiter plates at 37° C. for 5 min. The reaction is started by adding NADPH (1 mg/mL). After 0, 5, 10, 15, 20 and 30 min, 50 μl aliquots are removed, and the reaction is immediately stopped and cooled with the same volume of acetonitrile. The samples are frozen until analyzed. The remaining concentration of undegraded test substance is determined by MSMS. The half-life (T½) is determined from the gradient of the signal of test substance/unit time plot, it being possible to calculate the half-life of the test substance, assuming first order kinetics, from the decrease in the concentration of the compound with time. The microsomal clearance (mCl) is calculated from mCl=ln 2/T½/(content of microsomal protein in mg/ml)×1000 [ml/min/mg]"}, "[3]": {"assay": "Determination of the microsomal half-life / microsomal clearance, human liver microsomes", "conditions": "0.5 μM test substance, 0.25 mg microsomal protein/ml, pH 7.4, 37° C., NADPH", "procedure": "as §1, §2"}, "[4]": {"tested_on": "rats", "conditions": "cited from earlier work"}, "[5]": {"tested_on": "rats", "conditions": "cited from earlier work", "remark": "listed apart in the source"}}}
{"smiles": "Cn1cc2c(c(N3CCOCC3)c1=O)C(=O)N(CCc1nc3ccccc3s1)C2", "note": "[Example 33, 2-[2-(1,3-benzothiazol-2-yl)ethyl]-5-methyl-7-morpholin-4-yl-3,5-dihydro-2H-pyrrolo[3,4-c]pyridine-1,6-dione]", "values": [{"measurement": "IC50", "setting": "[1]", "result": "100 to 200", "unit": "nM"}, {"measurement": "Rat mCl", "setting": "[2]", "result": "+++ (+++ <10 μl min^−1 mg^−1)"}, {"measurement": "Human mCl", "setting": "[3]", "result": "+++ (+++ <10 μl min^−1 mg^−1)"}]}
{"smiles": "Cn1cc2c(c(N3CCOCC3)c1=O)C(=O)N(CCc1nc3ccccn3n1)C2", "note": "[Example 24, 5-Methyl-7-morpholin-4-yl-2-(2-[1,2,4]triazolo[1,5-a]pyridin-2-yl-ethyl)-3,5-dihydro-2H-pyrrolo[3,4-c]pyridine-1,6-dione]", "values": [{"measurement": "IC50", "setting": "[1]", "result": "> 500", "unit": "nM"}, {"measurement": "Rat mCl", "setting": "[2]", "result": "++ (++: <100 μl min^−1 mg^−1)"}, {"measurement": "Human mCl", "setting": "[3]", "result": "++ (++: <100 μl min^−1 mg^−1)"}]}
{"smiles": "COc1ccc(Cn2cc3c(c(N4CCOCC4)c2=O)C(=O)N(CCc2ccc4ccccc4n2)C3)cc1", "note": "[Example 14, 5-(4-Methoxy-benzyl)-7-morpholin-4-yl-2-(2-quinolin-2-yl-ethyl)-3,5-dihydro-2H-pyrrolo[3,4-c]pyridine-1,6-dione]", "values": [{"measurement": "IC50", "setting": "[1]", "result": "< 100", "unit": "nM"}, {"measurement": "Rat mCl", "setting": "[2]", "result": "+ (+: 100-220 μl min^−1 mg^−1)"}, {"measurement": "Human mCl", "setting": "[3]", "result": "∘ (∘: >220 μl min^−1 mg^−1)"}]}
{"smiles": "COc1ccc(Cc2nccc3cc(OC)c(OC)cc23)cc1OC", "note": "[Papaverine, papaverine]", "values": [{"measurement": "catalepsy on its own", "setting": "[4]; alone", "result": "did not cause catalepsy on its own"}, {"measurement": "cataleptic effect of the D2 receptor antagonist haloperidol", "setting": "[4]; with haloperidol", "result": "potentiated the cataleptic effect"}, {"measurement": "hyperactivity induced by PCP", "setting": "[5]; PCP-induced", "result": "reduced hyperactivity"}, {"measurement": "reduction of amphetamine-induced hyperactivity", "setting": "[5]; amphetamine-induced", "result": "insignificant"}]}
{"smiles": "Cn1cc2c(c(-c3cccnc3)c1=O)C(=O)N(CCc1ccc3ccccc3n1)C2", "note": "[Example 13, 5-Methyl-7-pyridin-3-yl-2-(2-quinolin-2-yl-ethyl)-3,5-dihydro-2H-pyrrolo[3,4-c]pyridine-1,6-dione]", "values": [{"measurement": "IC50", "setting": "[1]", "result": "> 500", "unit": "nM"}, {"measurement": "Rat mCl", "setting": "[2]", "result": "++ (++: <100 μl min^−1 mg^−1)"}, {"measurement": "Human mCl", "setting": "[3]", "result": "++ (++: <100 μl min^−1 mg^−1)"}]}
{"smiles": "O=C1c2c(cn(CCO)c(=O)c2N2CCOCC2)CN1CCc1ccc2ccccc2n1", "note": "[Example 19, 5-(2-Hydroxy-ethyl)-7-morpholin-4-yl-2-(2-quinolin-2-yl-ethyl)-3,5-dihydro-2H-pyrrolo[3,4-c]pyridine-1,6-dione]", "values": [{"measurement": "IC50", "setting": "[1]", "result": "< 100", "unit": "nM"}, {"measurement": "Rat mCl", "setting": "[2]", "result": "+++ (+++ <10 μl min^−1 mg^−1)"}, {"measurement": "Human mCl", "setting": "[3]", "result": "++ (++: <100 μl min^−1 mg^−1)"}]}
{"smiles": "Cn1cc2c(c(N3CCS(=O)(=O)CC3)c1=O)C(=O)N(CCc1ccc3ccccc3n1)C2", "note": "[Example 12, 5-Methyl-7-(1,1-dioxo-thiomorpholin-4-yl)-2-(2-quinolin-2-yl-ethyl)-3,5-dihydro-2H-pyrrolo[3,4-c]pyridine-1,6-dione]", "values": [{"measurement": "IC50", "setting": "[1]", "result": "100 to 200", "unit": "nM"}, {"measurement": "Rat mCl", "setting": "[2]", "result": "+++ (+++ <10 μl min^−1 mg^−1)"}, {"measurement": "Human mCl", "setting": "[3]", "result": "++ (++: <100 μl min^−1 mg^−1)"}]}
{"smiles": "Cn1cc2c(c(-c3cccnc3)c1=O)C(=O)N(CCc1nc3ccccc3n1C)C2", "note": "[Example 21, 5-Methyl-2-[2-(1-methyl-1H-benzoimidazol-2-yl)-ethyl]-7-pyridin-3-yl-3,5-dihydro-2H-pyrrolo[3,4-c]pyridine-1,6-dione]", "values": [{"measurement": "IC50", "setting": "[1]", "result": "200 to 500", "unit": "nM"}, {"measurement": "Rat mCl", "setting": "[2]", "result": "++ (++: <100 μl min^−1 mg^−1)"}, {"measurement": "Human mCl", "setting": "[3]", "result": "++ (++: <100 μl min^−1 mg^−1)"}]}
{"smiles": "Cn1cc2c(c(-c3cccnc3)c1=O)C(=O)N(CCc1nc3ccccn3n1)C2", "note": "[Example 26, 5-Methyl-7-pyridin-3-yl-2-(2-[1,2,4]triazolo[1,5-a]pyridin-2-yl-ethyl)-3,5-dihydro-2H-pyrrolo[3,4-c]pyridine-1,6-dione]", "values": [{"measurement": "IC50", "setting": "[1]", "result": "> 500", "unit": "nM"}, {"measurement": "Rat mCl", "setting": "[2]", "result": "++ (++: <100 μl min^−1 mg^−1)"}, {"measurement": "Human mCl", "setting": "[3]", "result": "+++ (+++ <10 μl min^−1 mg^−1)"}]}
{"smiles": "Cn1cc2c(c(N3CCOCC3)c1=O)C(=O)N(CCc1ccc3ccccc3n1)C2", "note": "[Example 9, 5-Methyl-7-morpholin-4-yl-2-(2-quinolin-2-yl-ethyl)-3,5-dihydro-2H-pyrrolo[3,4-c]pyridine-1,6-dione]", "values": [{"measurement": "IC50", "setting": "[1]", "result": "< 100", "unit": "nM"}, {"measurement": "Rat mCl", "setting": "[2]", "result": "++ (++: <100 μl min^−1 mg^−1)"}, {"measurement": "Human mCl", "setting": "[3]", "result": "++ (++: <100 μl min^−1 mg^−1)"}]}
